# Experiments:
# [1] = tested on: aneurysms, intramural hematomas and arterial dissections induced by porcine pancreatic elastase and 1% β-aminopropionitrile in C57BL/6 mice; assay: Aneurysm, intramural hematoma and arterial dissection model induced by porcine pancreatic elastase and 1% β-aminopropionitrile (PPE+BAPN model); format: in vivo, mouse; conditions: for histological analysis of the vessel wall: Day 15
# Experimental: (§1) The mouse was anesthetized by intraperitoneal injection of 1% pentobarbital sodium at the dose of 20 mg/kg. After the mouse entering anesthesia state, the abdominal hair was shaved off with a razor and further thoroughly depilated with depilatory cream. The abdomen was dried and the mouse was fixed on the operating table. Its body temperature was kept with a heating pad under the body. The abdominal skin was wiped with iodine and deiodined with 75% ethanol. An incision of about 1.5 cm was cut in the middle of the abdomen. The organs were carefully pushed away with tweezers. Then the intestine was divided to the left and right sides with gauze wetted with 3% penicillin-streptomycin. The connective tissue and muscle tissue on the surface of the aorta were carefully separated with tweezers to fully expose the abdominal aorta.
# (§2) Sterilized absorbent paper (0.3 cm×0.3 cm) was fully infiltrated in porcine pancreatic elastase (PPE), and then applied on the exposed abdominal aorta for 50 minutes. A gauze wetted with normal saline containing 3% penicillin-streptomycin was placed on the abdominal incision to prevent the abdominal water from excessive loss. After 50 minutes, the absorbent paper on the aorta was carefully taken away. And the abdominal cavity was rinsed with normal saline containing 3% penicillin-streptomycin. The peritoneum and skin were sutured with ⅜ suture needle and 5/0 suture line. After suturing, the wound was wiped with iodine and deiodined with 75% ethanol after 1 min. The mouse was placed into a clean feeding cage, fed with 1% β-aminopropionitrile (BAPN) feed and can eat and drink freely. The feed was changed every other day.
# (§3) Sample Fixation, Dehydration, Paraffin Embedding and Slicing 100 ml of formaldehyde, 4 g of sodium dihydrogen phosphate and 6.5 g of disodium hydrogen phosphate were dissolved in 900 ml of distilled water to prepare a polyoxymethylene fixed solution with a volume ratio of 10%. The aortic tissue was fixed in polyoxymethylene fixation solution for 72 hours, then washed with tap water for 4-6 hrs and placed in the dehydrator. The program was set for automatic dehydration, with 75% ethanol for 1.5 hours, 95% ethanol for 1.5 hours, 100% ethanol for 1.5 hours, dimethylbenzene for 1.5 hours and paraffin for 1.5 hours, successively. The paraffin embedding machine was opened 2 hours in advance to melt paraffin, and the temperature was controlled at 60° C. After the paraffin was melted, the dehydrated aortic tissue was embedded in paraffin. It was poured into the embedding box, and the paraffin soaked tissue block was placed into the embedding frame using heated tweezers and gently moved to the cold table. The paraffin block was taken off for slicing after the paraffin was solidified. Before slicing, the paraffin block was put into refrigerator for pre-cooling. After cooling, the paraffin block was cut into continuous 5 μM-thick paraffin sections using the slicer. The sections were unfolded on warm water at 38° C. in a slide spreader, fished with slides coated with APES, and dried naturally for subsequent histopathological staining.
# The tissue was fixed, embedded and cut into 4 μM paraffin sections. The paraffin sections were firstly baked (65° C., 60 minutes), and then dewaxed to aqueous phase (dimethylbenzene for 15 minutes→absolute ethanol for 5 minutes→95% ethanol for 5 minutes→75% ethanol for 5 minutes→running water for 1 minute); stained with hematoxylin for 15 minutes and then rinsed with running water for 4 minutes; differentiated with 1% ethanol hydrochloride for 5 seconds (the differentiation time was adjusted according to the preparation time of differentiation solution) and rinsed with running water for 5 minutes; then stained with eosin for 1 minute and placed in water for 1 minute; dehydrated and then permeated with dimethylbenzene (75% ethanol for 5 minutes→95% ethanol for 5 minutes→absolute ethanol for 5 minutes→dimethylbenzene for 15 minutes) and sealed with neutral gum.
# [2] = tested on: aneurysm induced by porcine pancreatic elastase in C57BL/6 mice; assay: Aneurysm model induced by porcine pancreatic elastase (PPE model); format: in vivo, mouse; conditions: for diameter of aneurysms: 20 mg/kg intraperitoneal injection from Day 5 for 10 days
# Experimental: as §1
# as §2, with “The” for “And the”, “cage” for “cage, fed with 1% β-aminopropionitrile (BAPN) feed”, “freely.” for “freely. The feed was changed every other day.”
# as §3
# The tissue was fixed, embedded and cut into 4 μM paraffin sections. […]
# [3] = 100 mg/kg intraperitoneal injection from Day 5 for 10 days
# [4] = 100 mg/kg intraperitoneal injection from Day 5 for 10 days, evaluated Day 15
# [5] = 100 mg/kg intragastric administration from Day 5 for 10 days, evaluated Day 15
# [6] = evaluated Day 15, vs model control
# [7] = 50 mg/kg orally via gavage from Day 5 for 10 days, evaluated Day 15
Compound,"histological analysis of the vessel wall [1, 3]","diameter / expansion of aneurysm (maximum blood vessel diameter of arteriopathy site) [1, 4]","occurrence of intramural hematoma and arterial dissection [1, 4]",also measured
Cc1ccc(C(C)C)cc1O [Carvacrol],reduced the thickness of vessel wall and protected the integrity of vessel structure,significantly reduced the diameter of infrarenal aneurysm in mouse (P<0.001),"reduced the occurrence of infrarenal aneurysm, intramural hematoma and arterial dissection in mouse",–
O=C(O)/C=C/c1ccc(O)cc1 [p-Coumaric acid],–,–,–,"diameter of infrarenal aneurysm [1, 5]: significantly reduced the diameter of infrarenal aneurysm in mouse"
COC(=O)[C@@H](Cc1ccc(O)c(O)c1)OC(=O)/C=C/c1ccc(O)c(O)c1 [Methyl rosmarinate],reduced the thickness of vessel wall and protected the integrity of vessel structure,–,"significantly reduced the occurrence of infrarenal aneurism, intramural hematoma and arterial dissection in mouse",–
COc1ccc(C(C)=O)c(O)c1 [Paeonol],reduced the thickness of vessel wall and protected the integrity of vessel structure,significantly reduced the diameter of infrarenal aneurysm in mouse (P<0.001),reduced the occurrence of infrarenal artery intramural hematoma and arterial dissection in mouse,–
O=c1ccc2ccccc2o1 [Coumarin],–,–,–,"diameter of infrarenal aneurysm [1, 5]: significantly reduced the diameter of infrarenal aneurysm in mouse"
O=C(O)/C=C/c1ccc(O)c(O)c1 [Caffeic acid],–,–,–,"diameter of aneurysms [2, 6]: significantly reduced the diameter and expansion of aneurysm in mouse (P<0.01)"
O=C(/C=C/c1ccc(O)c(O)c1)OCCc1ccccc1 [Phenethyl caffeate],reduced the thickness of vessel wall and protected the integrity of vessel structure,significantly reduced the diameter of artery expansion in mouse (P<0.01),"significantly reduced the occurrence of intramural hematoma and arterial dissection, and the arterial rupture in mouse","diameter of infrarenal aneurysms ([2]; 100 mg/kg orally via gavage from Day 5 for 10 days, evaluated Day 15, vs model control): significantly reduced the diameter of infrarenal aneurysms in mouse (P<0.001)"
"CC(C)(C)C(=O)Oc1ccc(S(=O)(=O)Nc2ccccc2C(=O)NCC(=O)[O-])cc1.[Na+] [Sivelestat sodium, reference compound]",–,–,–,"PPE + BAPN (protective effect) ([1]; aneurysm model induced by porcine pancreatic elastase and 1% β-aminopropionitrile, mouse): ineffective; PPE (protective effect) ([2]; aneurysm model induced by porcine pancreatic elastase, mouse): ineffective"
O=C(O)[C@H](O)Cc1ccc(O)c(O)c1 [Danshensu],–,–,–,"diameter of aneurysms [2, 6]: significantly reduced the diameter and expansion of aneurysm (P<0.01)"
C=CCc1ccc(O)c(OC)c1 [Eugenol],–,significantly reduced the diameter of infrarenal aneurysm in mouse (P<0.01),reducing the occurrence of infrarenal artery intramural hematoma and arterial dissection and the arterial rupture in mouse,"diameter of infrarenal aneurysm [1, 5]: significantly reduced the diameter of infrarenal aneurysm in mouse (P<0.001); occurrence of infrarenal artery intramural hematoma and arterial dissection [1, 5]: reducing the occurrence of infrarenal artery intramural hematoma and arterial dissection in mouse"
COc1cc(/C=C/C(=O)O)ccc1O [Ferulic acid],"protected the integrity of vessel structure, inhibited the degradation of elastic layer, inhibited the occurrence of intramural hematoma",significantly reduced the expansion of aneurysm in mouse (P<0.001),"significantly reduced the occurrence of intramural hematoma and arterial dissection, and the arterial rupture in mouse","diameter of aneurysms [2, 6]: significantly reduce the diameter of aneurysms in mouse (P<0.001)"
Aspirin eugenol ester,reduced the thickness of vessel wall and protected the integrity of vessel structure,–,significantly reduced the occurrence of infrarenal artery intramural hematoma and arterial dissection in mouse (P<0.001),–
COc1cc2ccc(=O)oc2cc1O [Scopoletin],–,–,–,"diameter of infrarenal aneurysm [1, 5]: significantly reduced the diameter of infrarenal aneurysm in mouse"
"COc1cc(/C=C/C(=O)O)ccc1O [Piperazine ferulate, reference compound]",–,–,–,"histological analysis of the vessel wall ([1]; 50 mg/kg orally via gavage from Day 5 for 10 days): reduced the thickness of vessel wall and protected the integrity of vessel structure; expansion of arteries (maximum blood vessel diameter) [1, 7]: significantly reduced the expansion of arteries in mouse (P<0.001); occurrence of aneurysm, intramural hematoma and arterial dissection [1, 7]: significantly reduced the occurrence of aneurysm, intramural hematoma and arterial dissection"

# — US20220395476A1, “DRUG FOR TREATING ARTERY-RELATED DISEASES, AND USE THEREOF” (SHANGHAI INSTITUTE OF MATERIA MEDICA, CHINESE ACADEMY OF …, priority 2019, published 2022)
